{"source": "PubChem BioAssay (NCI)", "test_in_all_cases": "NCI-60 cell line screen, 48 h", "key": {"SK-MEL-28 melanoma": {"tested_on": "SK-MEL-28 melanoma"}, "SW-620 colon": {"tested_on": "SW-620 colon"}, "K-562 leukemia": {"tested_on": "K-562 leukemia"}, "SF-295 CNS": {"tested_on": "SF-295 CNS"}, "TK-10 renal": {"tested_on": "TK-10 renal"}, "MDA-N": {"tested_on": "MDA-N"}, "786-0 renal": {"tested_on": "786-0 renal"}, "BT-549 breast": {"tested_on": "BT-549 breast"}, "CCRF-CEM leukemia": {"tested_on": "CCRF-CEM leukemia"}, "M14 melanoma": {"tested_on": "M14 melanoma"}, "SR leukemia": {"tested_on": "SR leukemia"}, "T-47D breast": {"tested_on": "T-47D breast"}, "RXF 393 renal": {"tested_on": "RXF 393 renal"}, "HT29 colon": {"tested_on": "HT29 colon"}, "UACC-257 melanoma": {"tested_on": "UACC-257 melanoma"}, "CAKI-1 renal": {"tested_on": "CAKI-1 renal"}}, "note": "“And” between values parts separate entries of the source, which are not always exact repeats. Equal entries are not always repeated.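 How tested: cells in 96-well plates exposed to compound for 48 hours at five concentrations. GI50 marks 50% less growth. Definition used: TGI = concentration required for complete inhibition of growth.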", "data": [{"smiles": "[O-]c1c[n+](CC[n+]2cc([O-])on2)no1", "values": [{"measurement": "TGI", "setting": "SK-MEL-28 melanoma", "result": "> 100", "unit": "µM"}, {"measurement": "TGI", "setting": "SW-620 colon", "result": "> 100", "unit": "µM"}, {"measurement": "TGI", "setting": "K-562 leukemia", "result": "> 100", "unit": "µM"}, {"measurement": "TGI", "setting": "SF-295 CNS", "result": "> 100", "unit": "µM"}, {"measurement": "TGI", "setting": "TK-10 renal", "result": "> 100", "unit": "µM"}, {"measurement": "TGI", "setting": "MDA-N", "result": "> 100", "unit": "µM"}, {"measurement": "TGI", "setting": "786-0 renal", "result": "> 100", "unit": "µM"}, {"measurement": "TGI", "setting": "BT-549 breast", "result": "> 100", "unit": "µM"}, {"measurement": "TGI", "setting": "CCRF-CEM leukemia", "result": "> 100", "unit": "µM"}, {"measurement": "TGI", "setting": "M14 melanoma", "result": "> 100", "unit": "µM"}, {"measurement": "TGI", "setting": "SR leukemia", "result": "> 100", "unit": "µM"}, {"measurement": "TGI", "setting": "T-47D breast", "result": "> 100", "unit": "µM"}, {"measurement": "TGI", "setting": "RXF 393 renal", "result": "> 100", "unit": "µM"}, {"measurement": "TGI", "setting": "HT29 colon", "result": "> 100", "unit": "µM"}, {"measurement": "TGI", "setting": "UACC-257 melanoma", "result": "> 100", "unit": "µM"}, {"measurement": "TGI", "setting": "CAKI-1 renal", "result": "> 100", "unit": "µM"}]}, {"smiles": "CC(=O)N1C2=CCCC2(C)c2ccccc21", "note": "(centres undefined)", "values": [{"measurement": "TGI", "setting": "SK-MEL-28 melanoma", "result": "> 100", "unit": "µM"}, {"measurement": "TGI", "setting": "SW-620 colon", "result": "> 100", "unit": "µM"}, {"measurement": "TGI", "setting": "K-562 leukemia", "result": "> 100", "unit": "µM"}, {"measurement": "TGI", "setting": "SF-295 CNS", "result": "> 100", "unit": "µM"}, {"measurement": "TGI", "setting": "TK-10 renal", "result": "> 100", "unit": "µM"}, {"measurement": "TGI", "setting": "MDA-N", "result": "> 100", "unit": "µM"}, {"measurement": "TGI", "setting": "786-0 renal", "result": "> 100", "unit": "µM"}, {"measurement": "TGI", "setting": "BT-549 breast", "result": "> 100", "unit": "µM"}, {"measurement": "TGI", "setting": "CCRF-CEM leukemia", "result": "> 100", "unit": "µM"}, {"measurement": "TGI", "setting": "M14 melanoma", "result": "> 100", "unit": "µM"}, {"measurement": "TGI", "setting": "SR leukemia", "result": "> 100", "unit": "µM"}, {"measurement": "TGI", "setting": "T-47D breast", "result": "> 100", "unit": "µM"}, {"measurement": "TGI", "setting": "RXF 393 renal", "result": "> 100", "unit": "µM"}, {"measurement": "TGI", "setting": "HT29 colon", "result": "> 100", "unit": "µM"}, {"measurement": "TGI", "setting": "UACC-257 melanoma", "result": "> 100", "unit": "µM"}, {"measurement": "TGI", "setting": "CAKI-1 renal", "result": "> 100", "unit": "µM"}]}, {"smiles": "Cc1c(F)c(N)c2c(=O)cc(-c3ccc(NC(=O)[C@@H](N)CCCCN)c(F)c3)oc2c1F", "values": [{"measurement": "TGI", "setting": "SK-MEL-28 melanoma", "result": "35.1 µM and 29 µM"}, {"measurement": "GI50", "setting": "SW-620 colon", "result": "7.81 µM and 1.71 µM"}, {"measurement": "TGI", "setting": "SW-620 colon", "result": "39 µM and 17.3 µM"}, {"measurement": "GI50", "setting": "K-562 leukemia", "result": "0.652 µM and 0.278 µM"}, {"measurement": "TGI", "setting": "K-562 leukemia", "result": "36.4 µM and 10.4 µM"}, {"measurement": "TGI", "setting": "SF-295 CNS", "result": "28.5 µM and 32.3 µM"}, {"measurement": "TGI", "setting": "TK-10 renal", "result": "21.4 µM and 26.4 µM"}, {"measurement": "TGI", "setting": "MDA-N", "result": "28.7 µM and 24.6 µM"}, {"measurement": "TGI", "setting": "786-0 renal", "result": "24 µM and 26.4 µM"}, {"measurement": "TGI", "setting": "BT-549 breast", "result": "50.3 µM and 49.6 µM"}, {"measurement": "TGI", "setting": "CCRF-CEM leukemia", "result": 22.9, "unit": "µM"}, {"measurement": "TGI", "setting": "M14 melanoma", "result": "46 µM and 39.4 µM"}, {"measurement": "GI50", "setting": "SR leukemia", "result": "5.84 µM and 2.53 µM"}, {"measurement": "TGI", "setting": "SR leukemia", "result": "20.3 µM and 9.55 µM"}, {"measurement": "TGI", "setting": "T-47D breast", "result": "28.7 µM and > 57.3 µM"}, {"measurement": "TGI", "setting": "RXF 393 renal", "result": "36.1 µM and 53.3 µM"}, {"measurement": "TGI", "setting": "HT29 colon", "result": "31 µM and 26.4 µM"}, {"measurement": "GI50", "setting": "UACC-257 melanoma", "result": 0.302, "unit": "µM"}, {"measurement": "TGI", "setting": "UACC-257 melanoma", "result": "24.7 µM and 27.8 µM"}, {"measurement": "TGI", "setting": "CAKI-1 renal", "result": "9.01 µM and 29.7 µM"}]}, {"smiles": "CN(C)/C=C/c1nnnn1-c1ccc(I)cc1", "values": [{"measurement": "TGI", "setting": "SK-MEL-28 melanoma", "result": 65.7, "unit": "µM"}, {"measurement": "TGI", "setting": "SW-620 colon", "result": 50.6, "unit": "µM"}, {"measurement": "TGI", "setting": "K-562 leukemia", "result": 44.5, "unit": "µM"}, {"measurement": "TGI", "setting": "SF-295 CNS", "result": "> 100", "unit": "µM"}, {"measurement": "TGI", "setting": "TK-10 renal", "result": 87.1, "unit": "µM"}, {"measurement": "TGI", "setting": "MDA-N", "result": 74.2, "unit": "µM"}, {"measurement": "TGI", "setting": "786-0 renal", "result": "> 100", "unit": "µM"}, {"measurement": "TGI", "setting": "BT-549 breast", "result": 92, "unit": "µM"}, {"measurement": "TGI", "setting": "CCRF-CEM leukemia", "result": 25.9, "unit": "µM"}, {"measurement": "TGI", "setting": "M14 melanoma", "result": 40.6, "unit": "µM"}, {"measurement": "TGI", "setting": "SR leukemia", "result": 41.6, "unit": "µM"}, {"measurement": "TGI", "setting": "T-47D breast", "result": 44, "unit": "µM"}, {"measurement": "TGI", "setting": "RXF 393 renal", "result": 59.6, "unit": "µM"}, {"measurement": "TGI", "setting": "HT29 colon", "result": 59.2, "unit": "µM"}, {"measurement": "TGI", "setting": "UACC-257 melanoma", "result": 67.5, "unit": "µM"}, {"measurement": "TGI", "setting": "CAKI-1 renal", "result": 50.6, "unit": "µM"}]}, {"smiles": "Nc1ncc(CN2CCOCC2)c(-c2ccccc2O)n1", "values": [{"measurement": "TGI", "setting": "SK-MEL-28 melanoma", "result": "> 100", "unit": "µM"}, {"measurement": "TGI", "setting": "SW-620 colon", "result": "> 100", "unit": "µM"}, {"measurement": "TGI", "setting": "K-562 leukemia", "result": "> 100", "unit": "µM"}, {"measurement": "TGI", "setting": "SF-295 CNS", "result": "> 100", "unit": "µM"}, {"measurement": "TGI", "setting": "TK-10 renal", "result": "> 100", "unit": "µM"}, {"measurement": "TGI", "setting": "MDA-N", "result": "> 100", "unit": "µM"}, {"measurement": "TGI", "setting": "786-0 renal", "result": "> 100", "unit": "µM"}, {"measurement": "TGI", "setting": "BT-549 breast", "result": "> 100", "unit": "µM"}, {"measurement": "TGI", "setting": "CCRF-CEM leukemia", "result": "> 100", "unit": "µM"}, {"measurement": "TGI", "setting": "M14 melanoma", "result": "> 100", "unit": "µM"}, {"measurement": "TGI", "setting": "SR leukemia", "result": "> 100", "unit": "µM"}, {"measurement": "TGI", "setting": "T-47D breast", "result": "> 100", "unit": "µM"}, {"measurement": "TGI", "setting": "RXF 393 renal", "result": "> 100", "unit": "µM"}, {"measurement": "TGI", "setting": "HT29 colon", "result": "> 100", "unit": "µM"}, {"measurement": "TGI", "setting": "UACC-257 melanoma", "result": "> 100", "unit": "µM"}, {"measurement": "TGI", "setting": "CAKI-1 renal", "result": "> 100", "unit": "µM"}]}]}
